This is an account of results in ChEMBL document CHEMBL1123458, “2-Phenylindenes: development of a new mammary tumor inhibiting antiestrogen by combination of estrogenic side effect lowering structural elements” (1986).

The inhibition is how much of the control response was suppressed.

For assay [1], the target named is Estrogen receptor (Bos taurus) (UniProt Q9XSB5+P49884). The assay can be described thus: Inhibition of [3H]estradiol binding to calf uterine estrogen receptor. The class given is protein assay.
The target of assay [2] is T1, Estrogen receptor (Mus musculus) (UniProt O08537+P19785). The assay is described as follows: Anti-uterotrophic effect in mice at 1.0 ug. The class given is functional.
Assay [3] deals with T1, Estrogen receptor (Mus musculus). The assay can be described thus: Anti-uterotrophic effect in mice at 100 ug. The class given is functional.
For assay [4] the target is unchanged. The assay is described as follows: Anti-uterotrophic effect in mice at 25 ug. The class given is functional.
The target is the same in assay [5]. The assay is described as follows: Anti-uterotrophic effect in mice at 5 ug. The class given is functional.
The target is the same in assay [6]. The assay is described as follows: Anti-uterotrophic effect in immature mice at 1.0 ug. In kind it is functional.
For assay [7] the target is unchanged. The assay is described as follows: Anti-uterotrophic effect in immature mice at 100 ug. The class given is functional.
Assay [8] shares this target. The assay is described as follows: Anti-uterotrophic effect in immature mice at 25 ug. In kind it is functional.
Assay [9] shares this target. The assay can be described thus: Anti-uterotrophic effect in immature mice at 5 ug. In kind it is functional.

T1 sequence (O08537 whole entry, looked up): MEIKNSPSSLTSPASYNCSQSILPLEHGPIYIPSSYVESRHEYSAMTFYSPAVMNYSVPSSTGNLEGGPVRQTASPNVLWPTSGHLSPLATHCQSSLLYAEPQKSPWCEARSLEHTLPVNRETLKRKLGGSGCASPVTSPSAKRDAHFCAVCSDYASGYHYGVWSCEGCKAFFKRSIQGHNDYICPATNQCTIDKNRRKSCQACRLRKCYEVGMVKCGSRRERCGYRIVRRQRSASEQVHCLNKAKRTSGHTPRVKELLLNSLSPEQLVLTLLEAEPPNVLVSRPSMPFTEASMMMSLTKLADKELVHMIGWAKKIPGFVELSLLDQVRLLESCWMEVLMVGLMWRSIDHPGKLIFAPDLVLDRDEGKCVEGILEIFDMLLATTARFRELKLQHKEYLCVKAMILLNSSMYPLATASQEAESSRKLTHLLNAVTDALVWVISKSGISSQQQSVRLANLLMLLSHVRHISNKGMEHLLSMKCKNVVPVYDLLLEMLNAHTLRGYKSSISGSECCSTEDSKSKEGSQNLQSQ
T1 sequence (P19785 whole entry, looked up): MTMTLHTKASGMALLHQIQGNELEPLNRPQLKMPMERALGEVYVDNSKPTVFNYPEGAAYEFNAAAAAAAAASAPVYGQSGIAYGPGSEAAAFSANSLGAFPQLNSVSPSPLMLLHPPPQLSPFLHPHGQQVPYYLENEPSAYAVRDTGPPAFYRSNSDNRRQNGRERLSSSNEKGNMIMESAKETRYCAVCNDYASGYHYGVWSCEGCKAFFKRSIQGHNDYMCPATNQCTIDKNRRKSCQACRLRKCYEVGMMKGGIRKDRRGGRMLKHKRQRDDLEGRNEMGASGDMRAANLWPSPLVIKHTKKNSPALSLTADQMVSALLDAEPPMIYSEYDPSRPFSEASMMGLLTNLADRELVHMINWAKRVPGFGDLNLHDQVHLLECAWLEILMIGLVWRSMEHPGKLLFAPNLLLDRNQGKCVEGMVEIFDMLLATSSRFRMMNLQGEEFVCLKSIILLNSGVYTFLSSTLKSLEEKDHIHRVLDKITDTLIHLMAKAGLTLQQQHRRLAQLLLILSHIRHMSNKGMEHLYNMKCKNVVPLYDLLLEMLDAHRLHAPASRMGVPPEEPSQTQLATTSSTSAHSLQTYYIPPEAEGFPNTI

Take `CC/C(=C(/CC)c1ccc(C(C)=O)c(C(C)=O)c1)c1ccc(C(C)=O)c(C(C)=O)c1`: the RBA in assay [1] was 1%. For the same molecule, the Effect in assay [2] turned out to be 33.8 mg 100g-1; in [3], 41.3 mg 100g-1; in assay [4], 40.4 mg 100g-1; in [5], 27.4 mg 100g-1. In addition, the inhibition came to 31% in [6], 5% in assay [7], 8% in [8] and 54% in assay [9].

`CC(=O)c1cccc(C2=C(C(C)C)c3cc(C(C)=O)ccc3C2(C)C)c1` yielded an RBA in assay [1] of 2%. Moreover, the Effect in assay [2] came to 30.3 mg 100g-1; in assay [4], 44.7 mg 100g-1. The inhibition in assay [6] amounted to 21%; in [8], 0%.

`CC/C(=C(/CC)c1cccc(C(C)=O)c1)c1cccc(C(C)=O)c1` showed an RBA in [1] of 2.2%.

As for `CC(=O)c1ccc(C2=C(C(C)C)c3cc(C(C)=O)c(C(C)=O)cc3C2(C)C)cc1C(C)=O`, the RBA in assay [1] was determined as 1.7%. The Effect in assay [2] is 29 mg 100g-1; in [4] it was 32.5 mg 100g-1. For the same molecule, the inhibition in assay [6] came out at 28%; in assay [8] it was 11%.

Consider `CCC1=C(c2cccc(C(C)=O)c2)C(C)c2ccc(C(C)=O)cc21` (configuration not stated), for which the RBA in [1] came to 1.8%. Moreover, the figures for the Effect in [2], in assay [4] and in assay [5] were 30.1 mg 100g-1, 40.2 mg 100g-1 and 34.8 mg 100g-1, respectively. Besides, the figures for the inhibition in assay [6], in assay [8] and in assay [9] were 48%, 9% and 30%, respectively.
